Assay results reported in patent US20250223171A1, “ALLOTROPE OF CARBON HAVING INCREASED ELECTRON DELOCALIZATION” (Structured Nano Carbon LLC, priority 2017, published 2025).

Columns and labels:
[1] = Antioxidant behavior of C60 fullerene compared with vitamin C (reported); conditions: 60 atoms for C60 fullerene versus six for vitamin C
From the text: Antioxidant behavior has been reported in C60 fullerene as being 172 times that of vitamin C or ascorbic acid.
The reported factor of 172 times greater than vitamin C can be partially explained by C60 fullerene having 60 carbons over which electron delocalization can proceed versus only six atoms of a mixture of half and half carbon and oxygen for vitamin C. If it were just numbers of atoms over which electron delocalization proceeds in its effectiveness in stabilizing unpaired electrons arising from ROS, one would expect that the potency of C60 fullerene would be only ten times that of vitamin C. Phenolics involve only seven atoms for stabilizing unpaired electrons of six carbons from the benzene ring plus the phenolic oxygen atom and thus C60 fullerene would then be expected to be a bit less than ten times that of phenolic antioxidants.
The reported 172 factor superiority of C60 fullerene in antioxidant behavior over vitamin C or ascorbic acid cannot be accounted for on the basis of individual atoms involved in the delocalization network alone. […] So, there must be something exceptional about the electron delocalization involving 3D fullerene concentric shells over 2D ascorbic acid or phenolics. There are several explanations for the superiority of 3D fullerene systems especially of the fullerene CNO systems: […]

rat = conditions: cited from earlier work

SMILES: c12c3c4c5c1c1c6c7c2c2c8c3c3c9c4c4c%10c5c5c1c1c6c6c%11c7c2c2c7c8c3c3c8c9c4c4c9c%10c5c5c1c1c6c6c%11c2c2c7c3c3c8c4c4c9c5c1c1c6c2c3c41 [C60 fullerene]
- superiority in antioxidant behavior over ascorbic acid, taking into account the number of atoms in the electron delocalization network [1]: 17.2 factor
- life expectancy (rat): nearly doubling of life expectancy
